Results reported in patent publication US9102678B2, “Compounds and methods for inhibiting mitotic progression” (Millennium Pharmaceuticals, Inc., priority 2004, dated 2015).

Molecular target: T1, recombinant murine Aurora A enzyme (Mus musculus, UniProt P97477)
T1 construct: hexahistidine (His6) (N); made in house; host or cells: insect cells, baculovirus (Bac-to-Bac, Invitrogen)
Assay: Aurora A DELFIA Kinase Assay
Format: biochemical
Settings: mouse Aurora A, 250 μM ATP; threshold less than or equal to 100 nM; read-out: IC50

T1 sequence (P97477 whole entry): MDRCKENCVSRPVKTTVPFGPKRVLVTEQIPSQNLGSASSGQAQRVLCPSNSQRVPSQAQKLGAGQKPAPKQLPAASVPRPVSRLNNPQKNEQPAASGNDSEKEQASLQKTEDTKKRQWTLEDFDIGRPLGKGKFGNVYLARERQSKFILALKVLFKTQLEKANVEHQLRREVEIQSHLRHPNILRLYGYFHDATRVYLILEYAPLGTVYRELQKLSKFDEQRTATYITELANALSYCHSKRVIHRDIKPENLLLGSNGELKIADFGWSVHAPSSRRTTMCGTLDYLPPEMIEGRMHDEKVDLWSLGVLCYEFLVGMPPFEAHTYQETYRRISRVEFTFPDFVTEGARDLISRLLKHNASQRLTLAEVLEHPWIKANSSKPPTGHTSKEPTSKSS

| SMILES | IC50 [nM] |
| --- | --- |
| CN1CCN(C(=O)c2ccc(Nc3ncc4c(n3)-c3ccc(Cl)cc3C(c3ccccc3Cl)=NC4)cc2)CC1 [Compound I-10, {4-[9-Chloro-7-(2-chloro-phenyl)-5H-benzo[c]pyrimido[4,5-e]azepin-2-ylamino]-phenyl}-(4-methyl-piperazin-1-yl)-methanone] | ≤ 100 |
| CNC1CCN(C(=O)c2ccc(Nc3ncc4c(n3)-c3ccc(Cl)cc3C(c3ccccn3)=NC4)cc2)C1 (stereo not drawn) [Compound I-315, 9-chloro-N-(4-{[3-(methylamino)pyrrolidin-1-yl]carbonyl}phenyl)-7-pyridin-2-yl-5H-pyrimido[5,4-d][2]benzazepin-2-amine] | ≤ 100 |
| CN(C)C1CN(C(=N)NC(=O)c2ccc(Nc3ncc4c(n3)-c3ccc(Cl)cc3C(c3c(F)cccc3F)=NC4)cc2)C1 [Compound I-259, 4-{[9-chloro-7-(2,6-difluorophenyl)-5H-pyrimido[5,4-d][2]benzazepin-2-yl]amino}-N-[[3-(dimethylamino)azetidin-1-yl](imino)methyl]benzamide] | ≤ 100 |
| COc1cccc(F)c1C1=NCc2cnc(Nc3cccc(C(=O)N4CC(N(C)C)C4)c3)nc2-c2ccc(Cl)cc21 [Compound I-227, 9-chloro-N-(3-{[3-(dimethylamino)azetidin-1-yl]carbonyl}phenyl)-7-(2-fluoro-6-methoxyphenyl)-5H-pyrimido[5,4-d][2]benzazepin-2-amine] | ≤ 100 |
| Cc1ccc2c(c1)C(c1ccccc1F)=NCc1cnc(Nc3ccc(C(=O)O)cc3)nc1-2 [Compound I-58, 4-[7-(2-Fluoro-phenyl)-9-methyl-5H-benzo[c]pyrimido[4,5-e]azepin-2-ylamino]-benzoic acid] | ≤ 100 |
| O=S(=O)(O)c1ccc(Nc2ncc3c(n2)-c2ccc(Cl)cc2C(c2ccccc2F)=NC3)cc1 [Compound I-67, 4-[9-Chloro-7-(2-fluoro-phenyl)-5H-benzo[c]pyrimido[4,5-e]azepin-2-ylamino]-benzenesulfonic acid] | ≤ 100 |
| COc1cccc(Nc2ncc3c(n2)-c2ccc(C(=O)O)cc2C(c2c(F)cccc2F)=NC3)c1 [Compound I-353, 7-(2,6-difluorophenyl)-2-[(3-methoxyphenyl)amino]-5H-pyrimido[5,4-d][2]benzazepine-9-carboxylic acid] | ≤ 100 |
| O=C(NCCc1ccccn1)c1ccc(Nc2ncc3c(n2)-c2ccc(Cl)cc2C(c2ccccc2F)=NC3)cc1 [Compound I-161, 4-[9-Chloro-7-(2-fluoro-phenyl)-5H-benzo[c]pyrimido[4,5-e]azepin-2-ylamino]-N-(2-pyridin-2-yl-ethyl)-benzamide] | ≤ 100 |
| CNC1CCCN(C(=O)c2ccc(Nc3ncc4c(n3)-c3ccc(Cl)cc3C(c3ccccc3OC)=NC4)cc2)C1 (stereo not drawn) [Compound I-333, 9-chloro-7-(2-methoxyphenyl)-N-(4-{[3-(methylamino)piperidin-1-yl]carbonyl}phenyl)-5H-pyrimido[5,4-d][2]benzazepin-2-amine] | ≤ 100 |
| COc1ccccc1C1=NCc2cnc(Nc3ccc(C(=O)NCCCN4CCOCC4)cc3)nc2-c2ccc(Cl)cc21 [Compound I-32, 4-[9-Chloro-7-(2-methoxy-phenyl)-5H-benzo[c]pyrimido[4,5-e]azepin-2-ylamino]-N-(3-morpholin-4-yl-propyl)-benzamide] | ≤ 100 |
| CNC1CN(C(=O)c2ccc(Nc3ncc4c(n3)-c3ccc(Cl)cc3C(c3ccccc3C(F)(F)F)=NC4)cc2)C1 [Compound I-297, 9-chloro-N-(4-{[3-(methylamino)azetidin-1-yl]carbonyl}phenyl)-7-[2-(trifluoromethyl)phenyl]-5H-pyrimido[5,4-d][2]benzazepin-2-amine] | ≤ 100 |
| CN(C)C1CCN(C(=N)NC(=O)c2ccc(Nc3ncc4c(n3)-c3ccc(Cl)cc3C(c3c(F)cccc3F)=NC4)cc2)C1 (stereo not drawn) [Compound I-237, 4-[9-Chloro-7-(2,6-difluoro-phenyl)-5H-benzo[c]pyrimido[4,5-e]azepin-2-ylamino]-N-[(3-dimethylamino-pyrrolidin-1-yl)-imino-methyl]-benzamide] | ≤ 100 |
| CNCCCN(C)C(=O)c1ccc(Nc2ncc3c(n2)-c2ccc(Cl)cc2C(c2c(F)cccc2F)=NC3)cc1 [Compound I-198, 4-[9-Chloro-7-(2,6-difluoro-phenyl)-5H-benzo[c]pyrimido[4,5-e]azepin-2-ylamino]-N-methyl-N-(3-methylamino-propyl)-benzamide] | ≤ 100 |
| O=C(c1ccc(Nc2ncc3c(n2)-c2ccc(Cl)cc2C(c2ccccc2F)=NC3)cc1)N1CCN(CCN2CCCC2)CC1 [Compound I-171, 9-Chloro-7-(2-fluorophenyl)-N-(4-{[4-(2-pyrrolidin-1-ylethyl)piperazin-1-yl]carbonyl}phenyl)-5H-pyrimido[5,4-d][2]benzazepin-2-amine] | ≤ 100 |
| CC(=O)c1ccc(Nc2ncc3c(n2)-c2ccc(Cl)cc2C(c2c(F)cccc2F)=NC3)cc1 [Compound I-337, 1-(4-{[9-chloro-7-(2,6-difluorophenyl)-5H-pyrimido[5,4-d][2]benzazepin-2-yl]amino}phenyl)ethanone] | ≤ 100 |
| O=C(NCCc1c[nH]cn1)c1ccc(Nc2ncc3c(n2)-c2ccc(Cl)cc2C(c2ccccc2F)=NC3)cc1 [Compound I-147, 4-[9-Chloro-7-(2-fluoro-phenyl)-5H-benzo[c]pyrimido[4,5-e]azepin-2-ylamino]-N-[2-(1H-imidazol-4-yl)-ethyl]-benzamide] | ≤ 100 |
| COc1cccc(F)c1C1=NCc2cnc(Nc3ccc(C(=O)N4CC(N)C4)cc3)nc2-c2ccc(Cl)cc21 [Compound I-286] | ≤ 100 |
| CC1CN(C(=N)c2ccc(Nc3ncc4c(n3)-c3ccc(Cl)cc3C(c3c(F)cccc3F)=NC4)cc2)CC(C)N1 (stereo not drawn) [Compound I-251, [9-Chloro-7-(2,6-difluoro-phenyl)-5H-benzo[c]pyrimido[4,5-e]azepin-2-yl]-{4-[(3,5-dimethyl-piperazin-1-yl)-imino-methyl]-phenyl}-amine] | ≤ 100 |
| CN(CCCN)C(=O)c1ccc(Nc2ncc3c(n2)-c2ccc(Cl)cc2C(c2ccccc2F)=NC3)cc1 [Compound I-117, N-(3-Amino-propyl)-4-[9-chloro-7-(2-fluoro-phenyl)-5H-benzo[c]pyrimido[4,5-e]azepin-2-ylamino]-N-methyl-benzamide] | ≤ 100 |
| CNC1CCN(C(=O)c2ccc(Nc3ncc4c(n3)-c3ccc(Cl)cc3C(c3ccccc3OC)=NC4)cc2)C1 (stereo not drawn) [Compound I-332, 9-chloro-7-(2-methoxyphenyl)-N-(4-{[3-(methylamino)pyrrolidin-1-yl]carbonyl}phenyl)-5H-pyrimido[5,4-d][2]benzazepin-2-amine] | ≤ 100 |
| Cc1ccccc1C1=NCc2cnc(Nc3ccc(C(=O)NCCN4CCOCC4)cc3)nc2-c2ccc(Cl)cc21 [Compound I-31, 4-(9-Chloro-7-o-tolyl-5H-benzo[c]pyrimido[4,5-e]azepin-2-ylamino)-N-(2-morpholin-4-yl-ethyl)-benzamide] | ≤ 100 |
| NC1CCN(C(=O)c2ccc(Nc3ncc4c(n3)-c3ccc(Cl)cc3C(c3c(F)cccc3F)=NC4)cc2Cl)C1 (stereo not drawn) [Compound I-318] | ≤ 100 |
| COc1cccc(F)c1C1=NCc2cnc(Nc3ccc(C(=O)N4CCC(N)CC4)cc3)nc2-c2ccc(Cl)cc21 [Compound I-241, N-{4[(4-aminopiperidin-1-yl)carbonyl]phenyl}-9-chloro-7-(2-fluoro-6-methoxyphenyl)-5H-pyrimido[5,4-d][2]benzazepin-2-amine] | ≤ 100 |
| CN(C)C1CCN(C(=O)c2cc(Nc3ncc4c(n3)-c3ccc(Cl)cc3C(c3c(F)cccc3F)=NC4)ccc2Cl)CC1 [Compound I-269, 9-chloro-N-(4-chloro-3-{[4-(dimethylamino)piperidin-1-yl]carbonyl}phenyl)-7-(2,6-difluorophenyl)-5H-pyrimido[5,4-d][2]benzazepin-2-amine] | ≤ 100 |
